Measured values from PubChem BioAssay (NCI).
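Grown in 96-well plates, cells were treated for 48 hours with each compound at five concentrations. Insufficient inhibition: endpoint recorded as highest concentration tested. TGI is the concentration that stops growth completely.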

How the values were obtained:
Assay in all cases: NCI tumour cell line growth inhibition, 48 h
DMS 114 small cell lung = test system: DMS 114 small cell lung
DMS 273 small cell lung = test system: DMS 273 small cell lung
M19-MEL melanoma = test system: M19-MEL melanoma
KM20L2 colon = test system: KM20L2 colon
SNB-78 CNS = test system: SNB-78 CNS
DLD-1 colon = test system: DLD-1 colon
XF 498 CNS = test system: XF 498 CNS
LXFL 529 NSCLC = test system: LXFL 529 NSCLC
HOP-18 NSCLC = test system: HOP-18 NSCLC
RXF-631 renal = test system: RXF-631 renal

Structure (SMILES) | TGI (DMS 114 small cell lung) [µM] | TGI (DMS 273 small cell lung) [µM] | TGI (M19-MEL melanoma) [µM] | TGI (KM20L2 colon) [µM] | TGI (SNB-78 CNS) [µM] | TGI (DLD-1 colon) [µM] | TGI (XF 498 CNS) [µM] | TGI (LXFL 529 NSCLC) [µM] | TGI (HOP-18 NSCLC) [µM] | TGI (RXF-631 renal) [µM]
Cn1cc2ccccc2c1-c1nc(F)nc(F)n1 | > 100 | > 100 | > 100 | > 100 | > 100 | > 100 | 90.6 | > 100 | – | –
O=C(CSc1nnc(-c2ccc(N=Cc3ccc(Cl)cc3)cc2)o1)Nc1ccccc1[N+](=O)[O-] | > 100 | > 100 | > 100 | > 100 | > 100 | – | > 100 | > 100 | > 100 | –
C=Cc1ccc(C)[n+](C[Si](C)(C)O[Si](C)(C)C)c1 | > 100 | > 100 | – | > 100 | > 100 | > 100 | – | > 100 | – | > 100
COc1ccc2c3c1O[C@]1(C)C34CCN(C)C(C2)C42C=C[C@@]1(OC)c1c(O)ccc(O)c12 | > 100 | > 100 | – | > 100 | > 100 | > 100 | > 100 | > 100 | > 100 | –
NC1=C(NC(=O)Cc2ccc(F)cc2)C(=O)c2ccccc2C1=O | 27 | > 100 | 45.4 | > 100 | 65.1 | > 71.4 | > 100 | > 100 | – | > 100
CNS(=O)(=O)NN(C)S(=O)(=O)c1ccccc1 | > 100 | > 100 | > 100 | > 100 | – | > 100 | – | > 100 | – | –
NC(=O)N/N=C(\CC1OC(=O)c2ccccc21)c1ccco1 (centres undefined) | > 100 | > 100 | > 100 | > 100 | – | > 100 | – | > 100 | > 100 | > 100
CC1=NN(C(=O)c2ccccc2O)C(=O)/C1=C/c1ccco1 | 6.94 | – | 20 | 81 | > 100 | > 100 | > 100 | > 100 | – | –
C[C@]12CCC(=O)C=C1CC[C@@H]1[C@@H]2CC[C@]2(C)C(=O)NC(=O)C[C@@H]12 | > 100 | > 100 | > 100 | > 100 | > 100 | > 100 | > 100 | > 100 | > 100 | > 100
COc1cc2c(oc(=O)c3c4oc([Si](C)(C)C)cc4cc(OC)c23)c2cccc(OCc3ccccc3)c12 | > 100 | 72.8 | > 100 | > 100 | 91.6 | > 100 | 27 | > 61.8 | 63.8 | –
COC(=O)N/N=C(\Cc1ccccc1)CN(C)C | > 100 | > 100 | > 100 | > 100 | > 100 | > 100 | > 100 | > 100 | – | > 100
CCCCOC(=O)C1C2CCC(O2)C1C(=O)OCCCC (centres undefined) | > 55.7 | > 100 | > 100 | > 81.2 | > 100 | > 87.5 | > 100 | – | > 100 | –
COc1ccc(Nc2nnc(-c3nsc4ccccc34)s2)cc1 | > 100 | > 100 | > 100 | > 100 | > 100 | – | – | > 100 | 2.66 | –
C/C(CC(=O)Nc1ccc([N+](=O)[O-])cc1)=N\NC(N)=O | > 62.6 | > 100 | > 100 | > 100 | > 100 | > 100 | > 100 | > 100 | > 100 | –
O=c1[nH]c2cc([N+](=O)[O-])ccc2nc1/C(=N/Nc1ccccc1)C(O)c1ccccc1Cl (centres undefined) | > 100 | > 100 | > 100 | > 100 | > 100 | > 100 | > 100 | > 100 | – | –
O=c1[nH]c2cc(Cl)ccc2nc1/C(=N\O)C(O)c1cccc([N+](=O)[O-])c1 (centres undefined) | > 100 | – | > 100 | > 100 | – | > 100 | > 100 | > 100 | > 100 | > 100
CC(=O)OC1COC(n2c(O)c(N=NC(N)=S)c3cc(Br)ccc32)C(OC(C)=O)C1OC(C)=O (centres undefined) | > 100 | > 100 | > 100 | > 100 | > 100 | > 100 | > 100 | > 100 | > 100 | –
CCOC(=O)NC(=O)c1cn(CCOC(=O)CCCCCCCCC(=O)OCCn2cc(C(=O)NC(=O)OCC)c(=O)[nH]c2=O)c(=O)[nH]c1=O | > 100 | > 100 | > 100 | > 100 | > 100 | > 100 | > 100 | > 100 | > 100 | > 100
C/C(=N\NS(=O)(=O)c1ccc(C)cc1)C(CN1CCCCC1)C(c1ccccc1)c1c(O)c2ccccc2oc1=O (centres undefined) | – | – | – | > 100 | > 100 | > 100 | > 100 | > 100 | > 100 | –
C[N+](C)(C)CC(=O)N/N=C/c1oc(-c2c(O)ccc3ccccc23)c(-c2c(O)ccc3ccccc23)c1[N+](=O)[O-] | – | – | 60.8 | 36 | – | 54.6 | 55.5 | > 100 | 62.8 | –
O=C(c1cccs1)N(C(=S)N1CCN(c2ccccn2)CC1)c1ccccc1 | > 100 | > 100 | > 100 | > 100 | > 100 | > 100 | 84 | > 100 | > 100 | –
